The test system of test [1] is BRCA1 mRNA expression in MDA-MB-231 cells. The experiment in a line: qRT-PCR assay: BRCA1 mRNA expression in MDA-MB-231. To be noted: Homo sapiens, MDA-MB-231, Inhibition of BRCA1 mRNA expression in MDA-MB-231 cells; median; read-out: RTqPCR-MDA-MB-231, IC50, BRCA1 (median). The test is classed as cell-based, human. Summed up: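 Human breast cancer cells, 200,000/well, were treated with test agents for 24 h without interruption after a 24 h settling period. Gene expression came from qPCR on cDNA made from 600 ng RNA, relative to GAPDH.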
A general note: In qPCR the cycle at which signal appears reflects the starting amount.

For test [2], the target named is T1, CDK12 (nuclear staining in CAL-120 cells) (Homo sapiens, UniProt Q9NYV4).
T1 construct: endogenous in cells; host or cells: CAL-120 human breast cancer cells (DSMZ ACC 459)
T1 sequence (Q9NYV4 whole entry): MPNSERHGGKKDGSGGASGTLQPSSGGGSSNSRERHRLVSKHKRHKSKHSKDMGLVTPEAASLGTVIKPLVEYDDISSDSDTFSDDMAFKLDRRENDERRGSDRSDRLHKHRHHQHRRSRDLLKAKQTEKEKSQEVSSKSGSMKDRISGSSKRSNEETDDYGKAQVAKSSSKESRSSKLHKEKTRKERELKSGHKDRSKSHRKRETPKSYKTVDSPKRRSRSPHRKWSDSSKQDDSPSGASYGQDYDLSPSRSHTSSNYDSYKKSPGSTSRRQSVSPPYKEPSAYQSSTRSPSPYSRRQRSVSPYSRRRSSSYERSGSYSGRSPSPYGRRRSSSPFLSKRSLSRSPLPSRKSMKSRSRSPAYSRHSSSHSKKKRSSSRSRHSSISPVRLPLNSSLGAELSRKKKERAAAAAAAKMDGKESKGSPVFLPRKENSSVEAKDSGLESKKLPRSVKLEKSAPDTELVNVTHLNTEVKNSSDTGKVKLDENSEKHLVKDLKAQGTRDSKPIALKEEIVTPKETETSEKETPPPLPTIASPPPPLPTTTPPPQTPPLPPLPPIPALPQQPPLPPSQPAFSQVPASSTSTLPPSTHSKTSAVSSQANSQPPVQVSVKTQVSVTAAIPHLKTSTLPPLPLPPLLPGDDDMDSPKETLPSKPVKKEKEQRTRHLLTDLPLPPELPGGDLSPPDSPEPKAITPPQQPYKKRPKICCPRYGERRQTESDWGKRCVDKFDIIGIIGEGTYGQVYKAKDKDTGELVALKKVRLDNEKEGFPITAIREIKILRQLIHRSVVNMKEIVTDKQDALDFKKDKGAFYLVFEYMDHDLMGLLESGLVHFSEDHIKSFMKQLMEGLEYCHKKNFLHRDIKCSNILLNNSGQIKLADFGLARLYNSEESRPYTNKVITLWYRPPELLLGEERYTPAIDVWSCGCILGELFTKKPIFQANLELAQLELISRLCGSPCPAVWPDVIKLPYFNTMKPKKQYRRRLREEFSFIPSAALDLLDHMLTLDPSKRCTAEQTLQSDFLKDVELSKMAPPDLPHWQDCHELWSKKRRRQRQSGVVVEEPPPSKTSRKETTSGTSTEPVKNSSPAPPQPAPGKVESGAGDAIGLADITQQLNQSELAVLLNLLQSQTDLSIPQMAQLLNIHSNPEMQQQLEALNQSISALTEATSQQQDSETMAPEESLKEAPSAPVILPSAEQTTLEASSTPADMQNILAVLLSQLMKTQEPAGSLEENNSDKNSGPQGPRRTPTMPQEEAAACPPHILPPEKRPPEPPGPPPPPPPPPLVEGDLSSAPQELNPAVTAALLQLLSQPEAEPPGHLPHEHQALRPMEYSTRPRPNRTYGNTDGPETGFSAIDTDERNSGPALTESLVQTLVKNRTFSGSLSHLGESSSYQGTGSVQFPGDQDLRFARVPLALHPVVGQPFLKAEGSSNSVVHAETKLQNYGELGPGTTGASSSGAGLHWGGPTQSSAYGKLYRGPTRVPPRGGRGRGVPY
T1 sequence (O75909 whole entry partner): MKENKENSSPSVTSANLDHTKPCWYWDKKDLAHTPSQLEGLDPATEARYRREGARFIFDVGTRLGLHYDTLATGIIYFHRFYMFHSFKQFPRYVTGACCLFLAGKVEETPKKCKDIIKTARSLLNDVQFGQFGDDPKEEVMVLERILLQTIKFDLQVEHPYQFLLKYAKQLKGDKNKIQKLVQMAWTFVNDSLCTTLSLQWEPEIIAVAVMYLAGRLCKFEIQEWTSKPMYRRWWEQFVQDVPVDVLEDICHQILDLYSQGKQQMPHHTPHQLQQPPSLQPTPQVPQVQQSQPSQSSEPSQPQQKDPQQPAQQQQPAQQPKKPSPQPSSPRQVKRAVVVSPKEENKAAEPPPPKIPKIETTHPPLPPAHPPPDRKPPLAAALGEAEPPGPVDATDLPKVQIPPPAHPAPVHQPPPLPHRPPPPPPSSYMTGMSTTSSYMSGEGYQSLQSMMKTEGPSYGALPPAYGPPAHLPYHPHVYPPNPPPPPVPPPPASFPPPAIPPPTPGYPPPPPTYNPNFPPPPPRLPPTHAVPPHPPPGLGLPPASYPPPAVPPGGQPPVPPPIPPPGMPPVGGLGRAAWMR
In words: CDK12 nuclear protein level: immunofluorescence/high content analysis (CAL-120). In kind it is cell-based. The settings on record: for DC50: CAL-120 cells, 24 h, immunofluorescence, 50% reduction of nuclear CDK12 staining intensity, median, read-out: CDK12 degradation IF, DC50- [mol/l] (median); for (IC50 CDK12 high ATP) to (Degradation DC50 CDK12) ratio: ratio of IC50 CDK12 high ATP kinase assay to DC50 CDK12 degradation (IF, CAL-120). A digest of the protocol: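 DC50 is the degrader concentration that halves nuclear CDK12 immunofluorescence relative to controls, measured by high-content imaging. CAL-120 cells were exposed to compound for 24 h at 37 °C before PFA fixation, and signal was normalized to DMSO and control wells.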

Test [3] concerns the target T2, CDK9/CycT1 (Homo sapiens, UniProt P50750).
T2 construct: Recombinant full-length His-tagged human CDK9 and CycT1; purchased Life Technologies PV4131; host or cells: insect cells
In words: CDK9/CycT1 high ATP kinase assay (TR-FRET, 2 mM ATP). The test is classed as biochemical. The settings on record: 2 mM ATP (high ATP); median; read-out: CDK9/CyclinT1, 2 mM ATP (high ATP), IC50 (median). A digest of the protocol:
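Full-length His-tagged human CDK9/CycT1 (insect cell, ~0.5 μg/mL) preincubated 15 min at 22 °C with compound in Tris pH 8.0, MgCl2, DTT buffer before reaction with biotinylated peptide substrate at high ATP (2 mM).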
(In general: In TR-FRET formats the signal depends on donor and acceptor labels being close together.)

Test [4] has as its target T3, CYCLIN K (nuclear staining in CAL-120 cells) (Homo sapiens, UniProt O75909).
T3 construct: endogenous in cells; host or cells: CAL-120 human breast cancer cells (DSMZ ACC 459)
In words: CYCLIN K nuclear protein level: immunofluorescence high content analysis (CAL-120). The test is classed as cell-based. To be noted: 24 h, 50% reduction of nuclear CCNK staining intensity, median, read-out: CYCLIN K degradation IF, DC50-[mol/l] (median). A digest of the protocol: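 Readout is automated confocal image analysis of nuclear cyclin K immunofluorescence (Hoechst nuclei) after PFA fixation. Cells were CAL-120, exposed to compound dose-response 24 h at 37 °C; values are DC50 for halving nuclear CCNK signal relative to DMSO and control wells.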

T3 sequence (O75909 whole entry): as the sequence (O75909 whole entry partner) above
T3 sequence (Q9NYV4 whole entry partner): as the sequence (Q9NYV4 whole entry) above
T2 sequence (P50750 whole entry): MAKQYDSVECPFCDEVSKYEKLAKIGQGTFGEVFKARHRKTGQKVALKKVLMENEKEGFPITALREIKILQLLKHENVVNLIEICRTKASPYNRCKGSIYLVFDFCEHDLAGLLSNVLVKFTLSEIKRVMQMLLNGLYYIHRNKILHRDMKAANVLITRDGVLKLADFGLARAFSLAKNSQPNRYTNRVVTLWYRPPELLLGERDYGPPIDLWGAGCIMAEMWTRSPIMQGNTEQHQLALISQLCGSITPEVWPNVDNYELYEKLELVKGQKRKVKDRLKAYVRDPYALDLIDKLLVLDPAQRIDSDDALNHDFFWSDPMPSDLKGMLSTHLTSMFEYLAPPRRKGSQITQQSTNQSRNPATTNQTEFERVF
T2 sequence (O60563 whole entry partner): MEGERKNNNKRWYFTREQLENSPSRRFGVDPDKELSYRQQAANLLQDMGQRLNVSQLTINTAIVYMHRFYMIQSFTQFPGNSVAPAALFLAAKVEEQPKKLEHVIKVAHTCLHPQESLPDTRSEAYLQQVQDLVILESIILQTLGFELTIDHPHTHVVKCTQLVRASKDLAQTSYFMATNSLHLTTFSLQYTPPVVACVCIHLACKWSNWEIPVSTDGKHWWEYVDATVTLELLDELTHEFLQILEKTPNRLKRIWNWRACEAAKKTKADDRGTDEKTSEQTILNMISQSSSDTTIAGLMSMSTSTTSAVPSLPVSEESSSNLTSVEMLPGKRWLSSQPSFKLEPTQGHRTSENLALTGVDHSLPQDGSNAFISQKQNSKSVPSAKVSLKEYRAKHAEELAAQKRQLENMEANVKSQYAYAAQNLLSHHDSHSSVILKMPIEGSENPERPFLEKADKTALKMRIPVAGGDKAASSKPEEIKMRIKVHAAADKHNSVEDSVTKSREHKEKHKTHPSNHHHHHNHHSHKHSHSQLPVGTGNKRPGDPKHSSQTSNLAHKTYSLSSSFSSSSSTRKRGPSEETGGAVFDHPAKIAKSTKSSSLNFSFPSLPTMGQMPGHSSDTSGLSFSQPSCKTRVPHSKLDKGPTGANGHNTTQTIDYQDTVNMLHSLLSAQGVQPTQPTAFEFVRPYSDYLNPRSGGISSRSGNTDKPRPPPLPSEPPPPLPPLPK

On to `Fc1cccc2[nH]c(CNc3nc(N4CCOCC4)nc4c(Br)cnn34)nc12` [Example 97, 8-bromo-N-[(4-fluoro-1H-benzimidazol-2-yl)methyl]-2-(morpholin-4-yl)pyrazolo[1,5-a][1,3,5]triazin-4-amine], for which the IC50 worked out at 1.68 nM in test [1] and 13.4 µM in test [3]. The figures for the DC50 in test [2] and in test [4] were 0.327 nM and 0.467 nM, respectively. In test [2], the “(IC50 CDK12 high ATP) to (Degradation DC50 CDK12) ratio” value amounted to 2411.
`C[C@@H]1CN(c2nc(NCc3nc4ccccc4[nH]3)n3ncc(Br)c3n2)C[C@H](C)N1C` [Example 129, N-(1H-benzimidazol-2-ylmethyl)-8-bromo-2-[(3R,5S)-3,4,5-trimethylpiperazin-1-yl]pyrazolo[1,5-a][1,3,5]triazin-4-amine]: the IC50 in test [1] was 174 nM; in test [3], above 20 µM. Moreover, the DC50 in test [2] was found to be 4.98 nM; in test [4] it was 3.39 nM. Further, the “(IC50 CDK12 high ATP) to (Degradation DC50 CDK12) ratio” value in test [2] is recorded as above 3658.
In the same order, the values of `CC1(C)CN(c2nc(NCc3nc4ccccc4[nH]3)n3ncc(C4CC4)c3n2)CCO1` [Example 123, N-[(1H-benzimidazol-2-yl)methyl]-8-cyclopropyl-2-(2,2-dimethylmorpholin-4-yl)pyrazolo[1,5-a][1,3,5]triazin-4-amine] are 71.2 nM, above 20 µM, 4.37 nM, 5.03 nM and 2883.
In the same order, the values of `CC(C)c1cnn2c(NCc3nc4ccccc4[nH]3)nc(N3CCCOCC3)nc12` [Example 8, N-[(1H-benzimidazol-2-yl)methyl]-2-(1,4-oxazepan-4-yl)-8-(propan-2-yl)pyrazolo[1,5-a][1,3,5]triazin-4-amine] are 93.7 nM, above 20 µM, 20.7 nM, 26.9 nM and above 956.
As for `Cc1ccc(-c2nnc(CNc3nc(N4CCOCC4)nc4c(Br)cnn34)[nH]2)cc1F` [Example 98, 8-bromo-N-{[5-(3-fluoro-4-methylphenyl)-4H-1,2,4-triazol-3-yl]methyl}-2-(morpholin-4-yl)pyrazolo[1,5-a][1,3,5]triazin-4-amine], the IC50 in test [1] was 78.8 nM; in test [3], 0.953 µM. The values for the DC50 in test [2] and in test [4] were 38.5 nM and 28.1 nM, respectively. The “(IC50 CDK12 high ATP) to (Degradation DC50 CDK12) ratio” value in test [2] worked out at 28.
In the same order, the values of `CC(C)c1cnn2c(NCc3nc4ccccc4[nH]3)nc(N3CCOC[C@@H]3C)nc12` [Example 6, N-[(1H-benzimidazol-2-yl)methyl]-2-[(3S)-3-methylmorpholin-4-yl]-8-(propan-2-yl)pyrazolo[1,5-a][1,3,5]triazin-4-amine] are 5.43 nM, above 16.1 µM, 3.32 nM, 2.36 nM and 537.
For the compound `CC(C)c1cnn2c(NCc3nc4ccccc4[nH]3)nc(N(C)CC(C)(C)O)nc12` [Example 5, 1-{[4-{[(1H-benzimidazol-2-yl)methyl]amino}-8-(propan-2-yl)pyrazolo[1,5-a][1,3,5]triazin-2-yl](methyl)amino}-2-methylpropan-2-ol], the IC50 in test [1] is 23.3 nM; in test [3], above 20 µM. In addition, the values for the DC50 in test [2] and in test [4] were 11.4 nM and 1.95 nM, respectively. Also, the “(IC50 CDK12 high ATP) to (Degradation DC50 CDK12) ratio” value in test [2] was 455.
As for `COc1ccc2[nH]c(CNc3nc(N4CCOCC4)nc4c(Br)cnn34)nc2c1` [Example 160, 8-bromo-N-[(5-methoxy-1H-benzimidazol-2-yl)methyl]-2-(morpholin-4-yl)pyrazolo[1,5-a][1,3,5]triazin-4-amine], the IC50 was 2.95 nM in test [1] and above 20 µM in test [3]. Moreover, the DC50 was 1.4 nM in test [2] and 0.743 nM in test [4]. For the same compound, the “(IC50 CDK12 high ATP) to (Degradation DC50 CDK12) ratio” value in test [2] amounted to 889.
